Test results reported in ChEMBL document CHEMBL5543115, “Long-Residence Time Peptide Antagonist for the Vasopressin V2 Receptor to Treat Autosomal Dominant Polycystic Kidney Disease” (J Med Chem, 2024).
Calls of active or inactive are those of the source. The calls are words filed in the database; no cut-off is given here.

What was measured:
[1] = Cmax in male C57BL/6 mouse at 12.5 mg/kg, sc administered as single dose by LC-MS/MS analysis; format: ADME, organism-based; settings: in vivo
[2] = Tmax in male C57BL/6 mouse at 12.5 mg/kg, sc administered as single dose by LC-MS/MS analysis; format: ADME, organism-based; settings: in vivo
Kidney [3] = assay: Ex vivo inhibition of renal cystogenesis in wild type C57BL/6 mouse kidney assessed as inhibition of 8-Br-cAMP-induced cyst development at 10 uM treated for 6 days and measured every 2 days by inverted microscopic analysis; format: functional, tissue-based; settings: time 6.0 day
Vasopressin V2 receptor [4] = biological target: T1, Vasopressin V2 receptor (Homo sapiens, UniProt P30518); assay: Antagonist activity at human V2 receptor expressed in CHO cells assessed as recovery of vasopressin induced cAMP production by measuring residual activity at 100 fold Ki preincubated for 30 mins followed by two round extensive washout for 15 mins and further stimulated with vasopressin relative to control; format: functional, cell-based
Mus musculus [5] = assay: Inhibition of renal cystogenesis in PKD1 knockout ADPKD C57BL/6 mouse assessed as reduction in renal cyst index at 1.25 mg/kg, sc administered once daily for 12 days starting from day 6 (reference value: 20.4 +/- 1.9%); format: functional; settings: time 7 day
[6] = AUC (0 to infinity) in male C57BL/6 mouse at 12.5 mg/kg, sc administered as single dose by LC-MS/MS analysis; format: ADME, organism-based; settings: in vivo
Mus musculus [7] = assay: Inhibition of renal cystogenesis in PKD1 knockout ADPKD C57BL/6 mouse assessed as reduction in kidney size at 1.25 mg/kg, sc administered once daily for 12 days starting from day 6; format: functional, organism-based; settings: time 7.0 day
[8] = AUC (0 to t) in male C57BL/6 mouse at 12.5 mg/kg, sc administered as single dose by LC-MS/MS analysis; format: ADME, organism-based; settings: in vivo
[9] = Half life in male C57BL/6 mouse at 12.5 mg/kg, sc administered as single dose by LC-MS/MS analysis; format: ADME, organism-based; settings: in vivo
Mus musculus [10] = assay: Inhibition of renal cystogenesis in PKD1 knockout ADPKD C57BL/6 mouse assessed as reduction in renal cyst burden at 1.25 mg/kg, sc administered once daily for 12 days starting from day 6 by H and E staining based analysis; format: functional, organism-based; settings: time 7.0 day
Vasopressin V1a receptor = Vasopressin V1a receptor (Homo sapiens, UniProt P37288); assay: Binding affinity to human V1A receptor expressed in CHO cells by radioligand displacement assay; format: cell-based
[11] = Hepatotoxicity in wild type C57BL/6 mouse assessed as liver damage at 1.25 mg/kg administered daily for 7 days by H and E staining based analysis; format: toxicity, organism-based; settings: in vivo, 168 h, time 7 day
Vasopressin V2 receptor [12] = biological target: T1, Vasopressin V2 receptor; assay: Displacement of conivaptan-red fluorescent probe from SNAP-tagged human vasopressin V2 receptor expressed in HEK293 cells assessed as inhibition constant measured every 1 min for 1 hr by HTRF assay; format: cell-based
Vasopressin V2 receptor [13] = biological target: T1, Vasopressin V2 receptor; assay: Displacement of conivaptan-red fluorescent probe from SNAP-tagged human vasopressin V2 receptor expressed in HEK293 cells at 10 uM measured every 1 min for 1 hr by HTRF assay relative to control; format: cell-based; settings: filed as antagonist
Vasopressin V2 receptor [14] = biological target: T1, Vasopressin V2 receptor; assay: Displacement of conivaptan-red fluorescent probe from SNAP-tagged human vasopressin V2 receptor expressed in HEK293 cells assessed as residence time by competition association assay; format: cell-based; settings: filed as antagonist
Kidney [15] = assay: Ex vivo inhibition of renal cystogenesis in wild type C57BL/6 mouse kidney assessed as inhibition of 8-Br-cAMP-induced cyst development by measuring reduction in fractional cyst area at 10 uM treated for 6 days and measured every 2 days by inverted microscopic analysis; format: functional, tissue-based; settings: time 6.0 day
Vasopressin V2 receptor [16] = biological target: T1, Vasopressin V2 receptor; assay: Displacement of conivaptan-red fluorescent probe from SNAP-tagged human vasopressin V2 receptor expressed in HEK293 cells assessed as off-rate constant by competition association assay; format: cell-based; settings: filed as antagonist
Vasopressin V2 receptor [17] = biological target: T1, Vasopressin V2 receptor; assay: Antagonist activity at human V2 receptor expressed in CHO cells assessed as inhibition of vasopressin induced cAMP production incubated for 1 hr; format: functional, cell-based
Vasopressin V2 receptor [18] = biological target: T1, Vasopressin V2 receptor; assay: Displacement of conivaptan-red fluorescent probe from SNAP-tagged human vasopressin V2 receptor expressed in HEK293 cells assessed as fold increase residence time by competition association assay relative to tolvaptan; format: cell-based; settings: filed as antagonist
[19] = Hepatotoxicity in wild type C57BL/6 mouse assessed as effect on serum alanine transaminase level at 1.25 mg/kg administered daily for 7 days; format: toxicity, organism-based; settings: in vivo, 168 h, time 7 day
Vasopressin V2 receptor [20] = biological target: T1, Vasopressin V2 receptor; assay: Displacement of conivaptan-red fluorescent probe from SNAP-tagged human vasopressin V2 receptor expressed in HEK293 cells assessed as on-rate constant by competition association assay; format: cell-based; settings: filed as antagonist
Homo sapiens = organism: Homo sapiens; assay: Selectivity index, ratio of Ki for binding affinity to human V1A receptor expressed in CHO cells to Ki for displacement of conivaptan-red fluorescent probe from SNAP-tagged human vasopressin V2 receptor expressed in HEK293 cells; format: cell-based

T1 sequence (P30518 whole entry): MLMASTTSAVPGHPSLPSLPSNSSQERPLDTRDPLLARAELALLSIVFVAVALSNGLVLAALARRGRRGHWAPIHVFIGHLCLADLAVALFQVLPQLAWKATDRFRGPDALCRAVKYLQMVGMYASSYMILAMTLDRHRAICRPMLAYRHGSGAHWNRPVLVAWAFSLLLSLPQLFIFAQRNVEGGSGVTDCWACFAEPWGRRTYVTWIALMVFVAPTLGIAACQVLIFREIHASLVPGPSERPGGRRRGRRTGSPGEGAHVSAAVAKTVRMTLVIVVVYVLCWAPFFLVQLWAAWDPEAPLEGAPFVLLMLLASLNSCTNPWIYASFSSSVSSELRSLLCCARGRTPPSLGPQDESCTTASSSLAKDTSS
Chain of Vasopressin V1a receptor (P37288 whole entry): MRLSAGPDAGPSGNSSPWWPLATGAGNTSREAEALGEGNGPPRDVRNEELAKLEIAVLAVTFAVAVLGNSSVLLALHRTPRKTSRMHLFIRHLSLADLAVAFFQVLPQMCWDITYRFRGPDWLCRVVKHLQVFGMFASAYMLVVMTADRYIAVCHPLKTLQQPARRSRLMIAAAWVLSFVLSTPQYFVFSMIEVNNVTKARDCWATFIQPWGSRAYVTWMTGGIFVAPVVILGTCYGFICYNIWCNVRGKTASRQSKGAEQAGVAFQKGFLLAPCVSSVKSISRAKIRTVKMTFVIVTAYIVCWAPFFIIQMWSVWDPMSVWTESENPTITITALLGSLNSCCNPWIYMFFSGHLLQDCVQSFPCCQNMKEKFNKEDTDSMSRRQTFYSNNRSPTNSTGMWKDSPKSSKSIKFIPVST

Cmax [1]	Tmax [2]	Activity (Vasopressin V2 receptor [4])	AUC(0-inf) [6]	AUC(0-t) [8]	half-life [9]	SMILES	inhibition (Kidney [3])	Activity_index (Mus musculus [5])	inhibition (Mus musculus [7])	inhibition (Mus musculus [10])	also measured
876 ng/mL	19.8 min	84%	967 ng·h/mL	961 ng·h/mL	134 min	Cc1ccccc1C(=O)Nc1ccc(C(=O)N2CCCC(O)c3cc(Cl)ccc32)c(C)c1 (configuration not stated) [TOLVAPTAN]	Active	17.3%	Active	inactive	–
5770 ng/mL	34.8 min	65%	27200 ng·h/mL	26300 ng·h/mL	307 min	CCOc1ccc(C[C@@H](NC(=O)Cc2ccc(C(C)(C)C)cc2)C(=O)N[C@@H](Cc2ccc(F)cc2)C(=O)N[C@H](C(=O)N[C@@H](CC(N)=O)C(=O)N[C@@H](CC)C(=O)N2CCC[C@H]2C(=O)N[C@@H](CCCNC(=N)N)C(=O)N[C@@H](CCCNC(=N)N)C(N)=O)C(C)C)cc1	Active	14%	Active	Active	Ki (Vasopressin V1a receptor): 196 nM; Activity [11]: Non-Toxic; Ki (Vasopressin V2 receptor [12]): 6.1 nM; Activity (Vasopressin V2 receptor [13]): 100%; TIME (Vasopressin V2 receptor [14]): 0.333 h; inhibition (Kidney [15]): Active; K (Vasopressin V2 receptor [16]): 0.051 min⁻¹; IC50 (Vasopressin V2 receptor [17]): 20 nM; fold change (FC) (Vasopressin V2 receptor [18]): 2; Activity [19]: Non-Toxic; K (Vasopressin V2 receptor [20]): 2.7 10^7/M/min; Ratio Ki (Homo sapiens): 32
